Source: US11865098B1, “Methods and compositions for treating excessive sleepiness” (Axsome Malta Ltd., priority 2017, dated 2024)

How the values were obtained:
[1] = test system: adult patients with OSA and ES; experiment: SF-36v2 health-related quality of life, 12-week parallel study in OSA; format: in vivo, human; conditions: week 12
Description: This was a 12-week, double-blind, placebo-controlled, parallel-design study. Patients were randomized (1:1:2:2:2) to APC 37.5 mg, 75 mg, 150 mg, or 300 mg, or placebo for 12 weeks, and were stratified by adherence or nonadherence with primary OSA therapy.
The SF-36 v2 consists of 2 summary scales (Physical Component Summary and Mental Component Summary) and 8 specific health status domains (Physical Function, Role Physical, Bodily Pain, General Health, Vitality, Social Functioning, Role Emotional, Mental Health) (Ware Jr et al., User's Manual for the SF-36v2™ Health Survey (2nd ed). QualityMetric Incorporated (Lincoln, RI); 2007). The EQ-5D-5L consists of 5 questions/dimensions (Mobility, Self-care, Usual Activities, Pain/Discomfort, and Anxiety/Depression) that have 5 response levels each (no problems, slight problems, moderate problems, severe problems, and extreme problems/unable to do) that are used to derive an overall EQ-5D-5L index score (0=death, 1=perfect health), and a health status visual analog scale (VAS) that is anchored at 0 with “the worst health you can imagine” and at 100 with “the best health you can imagine.” (The EuroQol Group. EQ-5D-5L User Guide. Version 2.1. April 2015. www.eurogol.org/fileadmin/user_upload/Documenten/PDF/Folders_Flyers/EQ-5D-5L_UserGuide_2015.pdf)
Efficacy analyses were based on the modified intent-to-treat (mITT) population; there was no multiplicity adjustment for the SF-36 v2 or EQ-5D-5L. SF-36 v2 scores were scaled from 0 to 100 (higher scores on all scales represent better health), transformed to norm-based scores using US general-population data from SF-36 Manuals (Ware Jr et al., User's Manual for the SF-36v2™ Health Survey (2nd ed.). QualityMetric Incorporated (Lincoln, RI); 2007), and were analyzed using a mixed-effect model with repeated measures (MMRM); and baseline value of the efficacy endpoint was used to determine differences in changes from baseline. EQ-5D-5L VAS and index-score data were analyzed using an MMRM model. Safety and tolerability were assessed based on treatment-emergent adverse events (TEAEs), vital signs, electrocardiogram test, physical exams, and laboratory tests.

[2] = test system: patients with narcolepsy type 1 or type 2; experiment: ESS, 12-week phase 3 study in narcolepsy; format: in vivo, human
Description: The ESS is a subjective sleepiness test that is well known in the art and routinely used to measure the sleepiness level of a subject. The scale is intended to measure daytime sleepiness through the use of a short questionnaire that asks the subject to rate his or her probability of falling asleep on a scale of increasing probability from 0 to 3 for eight different situations that most people engage in during their daily lives. The scores for the eight questions are added together to obtain a single number that estimates the subject's average sleep propensity (ASP). A number in the 0-10 range is considered to be normal while 11-12 indicates mild excessive sleepiness, 13-15 indicates moderate excessive sleepiness, and 16 or higher indicates severe excessive sleepiness. Narcolepsy patients have an average score of about 17. Obstructive sleep apnea (OSA) patients with excessive sleepiness have an average score of about 15.
The study was a 12-week, double-blind, randomized, placebo-controlled, parallel-group study. […]
Efficacy analyses were based on the modified intent-to-treat population (mITT), defined as all patients who were randomized, received at least 1 dose of study drug, and had baseline and at least 1 post-baseline evaluation of both MWT and ESS. MWT and ESS were analyzed using a mixed-effect repeated measures (MMRM) model. PGI-C was analyzed using a chi-square test. […]

Q: How did the “SF-36v2 Role Physical, General Health, Social Functioning, Role Emotional vs placebo” value ([1]; 150 mg) turn out when `NC(=O)OC[C@H](N)Cc1ccccc1` [JZP-110, (R)-2-amino-3-phenylpropyl carbamate] was run?
A: significantly greater changes from baseline relative to placebo

Q: And the “SF-36v2 Role Physical and Vitality domains and Physical Component Summary Scale vs placebo” value ([1]; 300 mg)?
A: significantly greater improvements relative to placebo

Q: What about the “SF-36v2 Mental Component Summary scores vs placebo” value ([1]; 37.5, 75, 150 mg similar) of the same compound?
A: only APC 150 mg reaching statistical significance

Q: And the “SF-36v2 Vitality domain, response vs MCID” value ([1]; 75, 150, and 300 mg)?
A: exceeded the MCID

Q: What about the “SF-36v2 Physical Component Summary Scale, increase vs placebo” value ([1]; 150 and 300 mg) of the same compound?
A: statistically significant

Q: And the “SF-36v2 Vitality domain vs placebo” value ([1]; 150 and 300 mg)?
A: statistically significant improvements relative to placebo

Q: And the “SF-36v2 Physical and Mental Component Summary changes vs MCID” value [1]?
A: did not exceed the minimal clinically important difference

Q: What about the “ESS scores, effect at week 1” value ([2]; 150 and 300 mg, as early as week 1) of the same compound?
A: Statistically significant effects

Q: What about the “ESS scores relative to placebo” value ([2]; all doses, week 12, mITT) of the same compound?
A: significantly decreased ESS scores relative to placebo
